The source of these data is paper PMC12873548, “D-amino acid substitution and cyclization enhance the stability and antimicrobial activity of arginine-rich peptides” (Microbiology, 2026).

For one series, the system named is E. coli ATCC 25922. The series is described as follows: Membrane integrity, PI uptake. The series is classed as cell-based, Escherichia coli. As to conditions: E. coli ATCC 25922, 5 µg ml−1 PI, 1 h. The procedure: Propidium iodide (PI) uptake was used to assess the permeabilization of the bacterial membrane upon incubation with peptides. E. coli and S. aureus cells, adjusted to an OD600 of 0.5, were placed into a 96-well plate containing 5 mM HEPES buffer (pH 7.4, supplemented with 5 mM glucose) and incubated with 5 µg ml^−1 PI for 15 min. Afterwards, different peptide concentrations were added, and PI uptake was rapidly measured every 10 min over a 1 h period using a Tecan Spark® microplate reader (λex=515 nm, λem=620 nm).

The next series has as its system P. aeruginosa (PA01). The class given is cell-based, Pseudomonas aeruginosa. As for the experimental part:
(§1) The MIC of arginine-based peptides was assessed using the microbroth dilution approach. Our in vitro screening included a panel of Gram-negative bacteria, Escherichia coli (ATCC 25922 and enterohaemorrhagic O157:H7) and Pseudomonas aeruginosa (PA01 and the drug-resistant strain NCTC 13437), and Gram-positive bacteria (Staphylococcus aureus ATCC 12600). Five-millilitre overnight cultures in Lysogeny broth, prepared from single isolated colonies, were diluted to 5×10^6 c.f.u. ml^−1 mid-log phase in Mueller–Hinton (MH) broth. Next, peptide concentrations (0 to 1 mM) were serially diluted twofold in 96-well plates and incubated overnight at 37 °C with the tested bacterial strains. In each case, the MIC was determined as the lowest peptide concentration at which no detectable bacterial growth was observed, employing an absorbance-based assay using a Tecan Spark® multimode plate reader. Subsequently, 10 µl aliquots from each peptide dilution were transferred to MH agar (1.5%) plates to determine the minimum bactericidal concentration (MBC) which was assessed by establishing at which concentration no visible growth of bacteria (assessed via colony formation) on the plate was observed.
(§2) The antimicrobial activity and structural stability of arginine-rich peptides were evaluated in the presence of human serum (20% and 50 %) and 5 µM Sequencing Grade Modified Trypsin (SGMT, Promega). Briefly, fresh human blood was collected in EDTA tubes and allowed to clot at room temperature for 1 h. Serum was then collected following centrifugation at 2,000 r.p.m. for 10 min at 4 °C. Peptides were incubated with 20%, 50% human serum and 5 µM SGMT in 50 mM Tris-HCl buffer (1 mM CaCl₂, pH 7.6) for 24 h at 37 °C. After the incubation period, the solutions were further incubated with E. coli (ATCC 25922 and O157:H7), P. aeruginosa (PA01, NCTC13437) and S. aureus (ATCC12600), and the MIC was assessed as described in the ‘Antibacterial assessment’ section. Additionally, the samples were analysed using electrospray ionization MS to monitor structural changes based on the molecular weight of the peptides.

The next series deals with E. coli (25922). The class given is cell-based, Escherichia coli. The procedure:
as §1, §2

A short description of series [1]: Stability in human serum by LC-MS. The series is classed as in vitro ADME. As to conditions: human serum (20% and 50%), 24 h, 37 °C; read-out LC-MS (ESI). As for the experimental part: as §2
In another series the test system is E. coli. Briefly: Intracellular ROS, DCFH-DA. The series is classed as cell-based, Escherichia coli. The following applies: peptides at MIC, 1/2× MIC, 1/4× MIC, 4 h, 37 °C. The procedure: (§3) Total reactive oxygen species (ROS) was measured using an oxidation-sensitive fluorescent dye, 2′,7′-dichlorodihydrofluorescein diacetate (DCFH-DA). For this assay, E. coli and S. aureus cultures were adjusted to an OD600 of 0.3 in MH broth and exposed to peptides at MIC, 1/2× MIC and 1/4× MIC, or to positive control (5 mM H2O2) for 4 h at 37 °C. Cells were centrifuged at 4,000 r.p.m. for 10 min at 4 °C and resuspended in PBS containing 10 µM DCFH-DA. The suspension was incubated under the same conditions for 30 min. Finally, cells were washed twice with PBS, and 150 µl aliquots were transferred to 96-well plates. Oxidized DCF products were detected using a Tecan Spark® microplate reader with excitation at 485 nm and emission at 530 nm. Additionally, 10 µl of E. coli cells incubated with D-R4F4 at MIC, 1/2×MIC and 1/4×MIC was collected for imaging using an All-in-One Fluorescence Microscope (Keyence, Japan).

The test system of a further series is S. aureus. Briefly: Intracellular ROS, DCFH-DA. The following applies: peptides at MIC, 1/2× MIC, 1/4× MIC, 4 h, 37 °C. The class given is cell-based, Staphylococcus aureus. The procedure:
as §3

Series [2] concerns the target T1, Sequencing Grade Modified Trypsin (Sus scrofa, UniProt P00761).
T1 construct: purchased Promega
The series is described as follows: Stability with trypsin by LC-MS. The class given is in vitro ADME. The following applies: 5 µM SGMT trypsin, 50 mM Tris-HCl, 1 mM CaCl2, pH 7.6, 24 h, 37 °C; read-out LC-MS (ESI). The procedure: as §2

[3] abbreviates: control without serum or trypsin.
[4] abbreviates: peptide incubated with 5 µM SGMT trypsin in 50 mM Tris-HCl, 1 mM CaCl2, pH 7.6, 24 h at 37 °C before MIC.
Setting [5] is: peptide incubated with 20% human serum 24 h at 37 °C before MIC.
Where [6] appears, read: peptide incubated with 50% human serum 24 h at 37 °C before MIC.

SMILES strings stand for the structures. ≈ marks a conversion by molar mass, not a printed value. Residues, ends and D or L forms follow the SMILES beside them.

T1 sequence (P00761 9-231): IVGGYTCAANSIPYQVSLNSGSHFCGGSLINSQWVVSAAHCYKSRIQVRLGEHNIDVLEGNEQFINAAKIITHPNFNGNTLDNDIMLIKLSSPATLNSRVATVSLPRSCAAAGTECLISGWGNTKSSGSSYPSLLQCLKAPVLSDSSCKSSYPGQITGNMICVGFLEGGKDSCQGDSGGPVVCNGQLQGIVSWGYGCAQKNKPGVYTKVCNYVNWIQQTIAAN

As for `N=C(N)NCCC[C@@H]1NC(=O)[C@H](CCCNC(=N)N)NC(=O)[C@H](CCCNC(=N)N)NC(=O)[C@H](Cc2ccccc2)NC(=O)[C@H](Cc2ccccc2)NC(=O)[C@H](Cc2ccccc2)NC(=O)[C@H](Cc2ccccc2)NC(=O)[C@H](CCCNC(=N)N)NC1=O` [CP-R4F4] (cyclo(RRRRFFFF)), in the series on E. coli ATCC 25922, the “PI uptake, membrane integrity” value is recorded as “membrane-disruptive activity”. Besides, the “MIC, Control” value against P. aeruginosa (PA01) (setting [3]) and against E. coli (25922) (setting [3]) was 31.25 µM (≈ 37.9 µg/mL) throughout. Also, the “MIC, Trypsin” value in the series with P. aeruginosa (PA01) (setting [4]) and against E. coli (25922) (setting [4]) was 31.25 µM (≈ 37.9 µg/mL) throughout. Besides, the “MIC, 20% human serum” value with P. aeruginosa (PA01) (setting [5]) and against E. coli (25922) (setting [5]) was 31.25 µM (≈ 37.9 µg/mL) in each case. Besides, the “MIC, 50% human serum” value in the series with P. aeruginosa (PA01) (setting [6]) and in the series on E. coli (25922) (setting [6]) was 125 µM (≈ 152 µg/mL) each time. The “Stability with serum proteases (LC chromatogram and mass spectrum)” value in series [1] was “appeared at the same retention time in both the absence and presence of proteases”. The “Intracellular ROS levels” value in the series on E. coli and in the series with S. aureus was “highest modulation of ROS levels” in each case. Further, the “Stability with trypsin (LC chromatogram and mass spectrum)” value in series [2] was “appeared at the same retention time in both the absence and presence of proteases”.
